This is an account of results in patent US9150585B2, “Analogs of camptothecin” (FL Therapeutics, LLC, priority 2012, dated 2015).

One may read the fraction unbound as free concentration divided by total concentration.

The conditions of data set [1]: in presence of HSA; cited from earlier work.
Data set [2] can be described thus: Persistence in plasma (incubation with human plasma, LC-MS/MS). In kind it is in vitro ADME. The settings on record: for Peak Area Ratio (Analyte/IS) Human Plasma 0 min Replicate 1 / Peak Area Ratio (Analyte/IS) Human Plasma 0 min Replicate 2 / Peak Area Ratio (Analyte/IS) Human Plasma 60 min Replicate 1 / Peak Area Ratio (Analyte/IS) Human Plasma 60 min Replicate 2 / % Remaining after 1-hr Incubation at 37° C. in Human Plasma, Average / % Remaining after 1-hr Incubation at 37° C. in Human Plasma, Replicate 1 / % Remaining after 1-hr Incubation at 37° C. in Human Plasma, Replicate 2: 10 μM. On the procedure:
Test compounds and control (procaine) were incubated at a concentration of 10 μM with human plasma. The duplicate incubations, conducted in 96-well plates in a shaking water bath maintained at 37° C., were performed for 0 and 60 minutes and quenched by addition of acetonitrile.
After quenching by acetonitrile, the plates were capped, vortexed, and centrifuged at 3000 rpm for 10 minutes. The supernatant was injected into LC-MS/MS.
[formula] […] FL-001 and FL-003 are stable in human plasma, with a percent remaining of 127 and 89, respectively. Using the same protocol, the percent remaining of Camptothecin after 1-hr incubation in human plasma is 11%.

The target of data set [3] is Human serum albumin (HSA) (Homo sapiens, UniProt P02768). The data set is described as follows: in vitro. The settings on record: isolated protein. Here is the method: Equilibrium dialysis was performed in a 24-well BD Gentest Serum Binding System (BD Biosciences, Woburn, Mass.). Human serum albumin (HSA) at 0.6 mM was prepared by dissolving in phosphate buffered saline (PBS: 4.01 mL 1 M K2HPO4+0.99 mL 1 M KH2PO4+1.37 mL 5 M NaCl+43.63 mL water). After washing and soaking the 24-well BD Gentest Serum Binding System with water, 30% ethanol, and PBS, 750 μL of HSA and 250 μL of PBS were dispensed into each donor and receiver well, respectively. 3.75 μL of 1 mM test compound or wafarin (as control) was spiked into HSA in each donor well. The duplicate incubations were performed at 37° C. for 20 hrs.
Chain of Human serum albumin (HSA) (P02768 25-609): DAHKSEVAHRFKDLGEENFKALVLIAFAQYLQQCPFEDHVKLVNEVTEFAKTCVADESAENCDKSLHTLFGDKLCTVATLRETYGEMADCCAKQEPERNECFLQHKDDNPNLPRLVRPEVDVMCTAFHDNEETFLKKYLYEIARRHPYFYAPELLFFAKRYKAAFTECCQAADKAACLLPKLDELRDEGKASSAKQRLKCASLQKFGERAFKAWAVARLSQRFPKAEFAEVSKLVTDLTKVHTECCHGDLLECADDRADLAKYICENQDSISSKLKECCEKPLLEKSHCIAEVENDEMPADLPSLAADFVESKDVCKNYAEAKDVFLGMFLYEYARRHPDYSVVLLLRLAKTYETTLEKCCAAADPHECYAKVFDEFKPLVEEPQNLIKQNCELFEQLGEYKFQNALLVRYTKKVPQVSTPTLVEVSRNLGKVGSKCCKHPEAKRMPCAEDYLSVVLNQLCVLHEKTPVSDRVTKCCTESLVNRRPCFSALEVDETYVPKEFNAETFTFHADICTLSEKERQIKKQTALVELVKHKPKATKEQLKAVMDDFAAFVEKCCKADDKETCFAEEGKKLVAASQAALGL
After incubation, HSA and buffer samples collected from donor and receiver wells, together with calibration standard samples, were prepared in 96-well plates as shown in Table 5.
The plates were then capped, vortexed, and centrifuged at 3500 rpm for 10 minutes. The supernatant was injected into LC-MS/MS. Sample analysis was performed on an LC/MS/MS system composed of Shimadzu Prominence pumps, SIL-20ACHT autosampler, and Applied Biosystems/MDS Sciex API 3200.

The conditions of data set [4]: cited from earlier work.
The mark [5] stands for this setting: human plasma, 37° C., replicate 1.
The mark [6] stands for this setting: human plasma, 37° C., replicate 2.

Consider `CC[C@@]1(O)C(=O)OCc2c1cc1n(c2=O)Cc2cc3c(N)cccc3nc2-1` [9-Aminocamptothecin], for which the “equilibrium concentration of active (lactone) form in blood” value in data set [1] is on record as “less than 0.5%”.
As to `CC[C@@]1(O)C(=O)OCc2c1cc1n(c2=O)Cc2cc3ccccc3nc2-1` [Camptothecin], in data set [2] (same protocol, human plasma, 1 hr), the “percent remaining after 1-hr incubation in human plasma” value was 11%.
On to `CCCCCCCCCCCCCCCCC(NC(=O)CCC(=O)O[C@]1(CC)C(=O)OCc2c1cc1n(c2=O)Cc2cc3ccccc3nc2-1)C(=O)O` (stereo partly drawn) [FL-001], for which, in data set [2] (setting [5]), the “Peak Area Ratio (Analyte/IS) Human Plasma 0 min Replicate 1” value was determined as 1.47 and the “Peak Area Ratio (Analyte/IS) Human Plasma 60 min Replicate 1” value is 1.96. For the same compound, in data set [2] (setting [6]), the “Peak Area Ratio (Analyte/IS) Human Plasma 0 min Replicate 2” value is 1.75 and the “Peak Area Ratio (Analyte/IS) Human Plasma 60 min Replicate 2” value is recorded as 2.13. Moreover, in data set [2] (human, plasma, 1 h), the “% Remaining after 1-hr Incubation at 37° C. in Human Plasma, Average” value (shortened to “% Remaining after 1-hr Incubation … Average”) is 127%; the “% Remaining after 1-hr Incubation at 37° C. in Human Plasma, Replicate 1” value (shortened to “% Remaining after 1-hr Incubation … Replicate 1”) is on record as 122%; the “% Remaining after 1-hr Incubation at 37° C. in Human Plasma, Replicate 2” value (shortened to “% Remaining after 1-hr Incubation … Replicate 2”) was found to be 132%. The fraction unbound at 20 h, 5 μM in data set [3] is under 0.001.
For `CCCCCCCCCCCCCCCCC(NC(=O)CCC(=O)O[C@]1(CC)C(=O)OCc2c1cc1n(c2=O)Cc2c-1nc1ccc(O)cc1c2CC)C(=O)O` (stereo partly drawn) [FL-003], in data set [2] (setting [5]), the “Peak Area Ratio (Analyte/IS) Human Plasma 0 min Replicate 1” value amounted to 3.91 and the “Peak Area Ratio (Analyte/IS) Human Plasma 60 min Replicate 1” value is 3.37. In data set [2] (setting [6]), the “Peak Area Ratio (Analyte/IS) Human Plasma 0 min Replicate 2” value worked out at 4.03 and the “Peak Area Ratio (Analyte/IS) Human Plasma 60 min Replicate 2” value amounted to 3.73. In addition, the “% Remaining after 1-hr Incubation … Average” value in data set [2] (human plasma, 37° C., 1 hr, average of duplicates) is 89%. Also, in data set [2] (human plasma, 37° C., 1 hr, replicate 1), the “% Remaining after 1-hr Incubation … Replicate 1” value was determined as 85%. In addition, the “% Remaining after 1-hr Incubation … Replicate 2” value in data set [2] (human plasma, 37° C., 1 hr, replicate 2) came to 94%. Further, the fraction unbound at 20 h, 5 μM in data set [3] was under 0.001.
In data set [3], `CCCCCCCCCCCCCCCCC(NC(=O)CCC(=O)O[C@]1(CC)C(=O)OCc2c1cc1n(c2=O)Cc2cc3c(CN(C)C)c(O)ccc3nc2-1)C(=O)O` (stereo partly drawn) [FL-004] yielded a fraction unbound at 20 h, 5 μM of under 0.002.
For the compound `CCCCCCCCC(NC(=O)CCC(=O)O[C@]1(CC)C(=O)OCc2c1cc1n(c2=O)Cc2cc3c(CN(C)C)c(O)ccc3nc2-1)C(=O)O` (stereo partly drawn) [FL-006], the fraction unbound at 20 h, 5 μM in data set [3] was 0.015.
Turning to `CCCCCCCCCCCCC(NC(=O)CCC(=O)O[C@]1(CC)C(=O)OCc2c1cc1n(c2=O)Cc2cc3c(CN(C)C)c(O)ccc3nc2-1)C(=O)O` (stereo partly drawn) [FL-008], in data set [3], the fraction unbound at 20 h, 5 μM is under 0.002.
Still for that read-out and setting: the result for `CCCCCCCCCCCCCCCCC(NC(=O)CCCC(=O)O[C@]1(CC)C(=O)OCc2c1cc1n(c2=O)Cc2cc3c(CN(C)C)c(O)ccc3nc2-1)C(=O)O` (stereo partly drawn) [FL-010] reads under 0.002; that for `CCCCCCCCCCCCCCCCC(NC(=O)C(CCCCN)NC(=O)CCC(=O)O[C@]1(CC)C(=O)OCc2c1cc1n(c2=O)Cc2cc3ccccc3nc2-1)C(=O)O` (stereo partly drawn) [FL-013], under 0.001.
On the same count and under the same terms, the result for `CCCCCCCCCCCCCCCC(=O)N(CCC(=O)O[C@]1(CC)C(=O)OCc2c1cc1n(c2=O)Cc2cc3ccccc3nc2-1)CC(=O)O` [FL-015] reads under 0.001; that for `CCCCCCCCCCCCCCCC(=O)N[C@@H](CCC(=O)NCC(=O)O[C@]1(CC)C(=O)OCc2c1cc1n(c2=O)Cc2c-1nc1ccc(O)cc1c2CC)C(=O)O` [FL-033], under 0.001.
For `CCN(CC)CCOC(=O)c1ccc(N)cc1` [Procaine, reference compound], in data set [2] (setting [5]), the “Peak Area Ratio (Analyte/IS) Human Plasma 0 min Replicate 1” value is recorded as 0.60 and the “Peak Area Ratio (Analyte/IS) Human Plasma 60 min Replicate 1” value turned out to be 0.00. Besides, in data set [2] (setting [6]), the “Peak Area Ratio (Analyte/IS) Human Plasma 0 min Replicate 2” value is reported as 1.21 and the “Peak Area Ratio (Analyte/IS) Human Plasma 60 min Replicate 2” value was found to be 0.11. Besides, in data set [2] (human, plasma, 1 h), the “% Remaining after 1-hr Incubation … Average” value is given as 6%; the “% Remaining after 1-hr Incubation … Replicate 1” value worked out at 0%; the “% Remaining after 1-hr Incubation … Replicate 2” value amounted to 12%.
For `CC(=O)CC(c1ccccc1)c1c(O)c2ccccc2oc1=O` (stereo not drawn) [Warfarin], the “protein binding in human plasma (literature values)” value in data set [4] was 98-100%.
